Assay [1] deals with Influenza strain A549_A/WSN/33 (H1N1). Kind of assay: Influenza antiviral assay (neuraminidase fluorescence readout). The assay is classed as cell-based, Influenza virus. The settings on record: Influenza A virus, read-out: % Inhibition (EC50 class, Table 2).
The target in assay [2] is Full length EN PA (influenza PA endonuclease) (Influenza A virus, UniProt P15659). Kind of assay: EN PA FRET inhibition assay. Type of assay: biochemical. The settings on record: FRET probe, mean of a minimum of two independent experiments, read-out: Potency (IC50 class, Table 3).

Bounds are passed on as bounds.

Data on 54 compounds can be found in patent US10980805B2, “Aza-pyridone compounds and uses thereof” (Janssen BioPharma, Inc., priority 2013, dated 2021).

In general, EC50 refers to the concentration at which the effect is half-maximal. In general, IC50 refers to the concentration at which inhibition is half-maximal. Turning to `CCC#Cc1ccn(C(c2ccccc2)C2CN(C)C(=O)c3c(O)c(=O)cnn32)n1` (stereo not drawn) [Compound 117], the EC50 in assay [1] is < 20 µM. Besides, in assay [2], the IC50 was < 0.25 µM.
In the case of `CCCN1C[C@H](C(c2cccc(F)c2)c2cccc(F)c2)n2ncc(=O)c(OC(=O)C(C)C)c2C1=O` [Compound 80-A], in assay [1], the EC50 was < 20 µM. Further, the IC50 in assay [2] is < 0.25 µM.
As for `C[C@H](N1C[C@H](C2c3ccccc3CCc3ccccc32)n2ncc(=O)c(O)c2C1=O)C(F)(F)F` [Compound 33-A], the EC50 in assay [1] is < 20 µM. For the same compound, in assay [2], the IC50 is < 0.25 µM.
With `CC(C)N1C[C@H](C2c3cccc(F)c3CCc3c(F)cccc32)n2ncc(=O)c(O)c2C1=O` [Compound 51-A], the EC50 in assay [1] was < 20 µM. Further, in assay [2], the IC50 is < 0.25 µM.
As for `CN1C[C@H]([C@@H](c2ccccc2)c2cccc(OC3CC3)c2)n2ncc(=O)c(O)c2C1=O` [Compound 105-A], in assay [1], the concentration for a half-maximal effect (EC50) was < 20 µM. The half-maximal inhibitory concentration (IC50) in assay [2] is < 0.25 µM.
`CC(C)OC(=O)Oc1c2n(ncc1=O)[C@@H](C(c1ccccc1)c1ccccc1)CN(C(C)C)C2=O` [Compound 133]: the EC50 in assay [1] is < 20 µM. Also, in assay [2], the IC50 was ≥ 1 µM.
As for `CC(C)N1C[C@@H](C(c2ccccc2)c2ccccc2)n2ncc(=O)c(O)c2C1=O` [Compound 6-B], in assay [1], the EC50 is < 20 µM. In assay [2], the IC50 was in the range of 0.25 to 1 µM.
Consider `CC(N)C(=O)OCOc1c2n(ncc1=O)[C@@H](C(c1ccccc1)c1ccccc1)CN(C(C)C)C2=O` (stereo partly drawn) [Compound 106-A], for which the EC50 in assay [1] is < 20 µM. Also, the IC50 in assay [2] was < 0.25 µM.
In the case of `CN1CC(C2c3ccc(F)cc3CCc3cc(F)ccc32)n2ncc(=O)c(O)c2C1=O` (stereo not drawn) [Compound 89], the EC50 in assay [1] is < 20 µM. Besides, the concentration for half-maximal inhibition (IC50) in assay [2] was < 0.25 µM.
`CN1CC(C(c2ccc(F)cc2)c2cccc(Cl)c2)n2ncc(=O)c(O)c2C1=O` (stereo not drawn) [Compound 61]: the EC50 in assay [1] was < 20 µM. For the same compound, in assay [2], the IC50 is < 0.25 µM.
Taken in the same sequence, the figures for `CCCN1C[C@H](C(c2cccc(F)c2)c2cccc(F)c2)n2ncc(=O)c(O)c2C1=O` [Compound 74-A] were < 20 µM and < 0.25 µM.
In the case of `CC(C)N1CC(C2c3ccccc3CCc3ccccc32)n2ncc(=O)c(O)c2C1=O` (stereo not drawn) [Compound 17], the EC50 in assay [1] is < 20 µM. Further, in assay [2], the IC50 is < 0.25 µM.
Consider `Cc1cccc(C(c2cccc(C)c2)C2CN(C)C(=O)c3c(O)c(=O)cnn32)c1` (stereo not drawn) [Compound 25], for which the EC50 in assay [1] is < 20 µM. Also, in assay [2], the IC50 was < 0.25 µM.
The like results for `CC#Cc1ccn([C@H](c2ccccc2)[C@@H]2CN(C)C(=O)c3c(O)c(=O)cnn32)n1` [Compound 115-A] were, in that order, < 20 µM and ≥ 1 µM.
Take `CN1C[C@H]([C@H](c2ccccc2)c2cccc(Cl)c2)n2ncc(=O)c(O)c2C1=O` [Compound 9-B]: the EC50 in assay [1] is < 20 µM. Moreover, in assay [2], the IC50 was < 0.25 µM.
As for `CN1CC(C(c2ccc(Cl)cc2)c2cccc(Cl)c2)n2ncc(=O)c(O)c2C1=O` (stereo not drawn) [Compound 60], the EC50 in assay [1] is < 20 µM. Further, the IC50 in assay [2] is < 0.25 µM.
With `CN1C[C@H]([C@H](c2ccccc2)c2cccc(OC3CC3)c2)n2ncc(=O)c(O)c2C1=O` [Compound 105-B], the EC50 in assay [1] is < 20 µM. In addition, the IC50 in assay [2] is < 0.25 µM.
Take `CN1CC(C(c2ccccc2)c2ccccc2)n2ncc(=O)c(O)c2C1=O` (stereo not drawn) [Compound 1]: the EC50 in assay [1] is < 20 µM. In addition, the IC50 in assay [2] is < 0.25 µM.
Taken in the same sequence, the figures for `CN1C[C@H]([C@@H]2c3cc(F)ccc3CCc3c(F)cccc32)n2ncc(=O)c(O)c2C1=O` [Compound 71-A] were < 20 µM and < 0.25 µM.
Regarding `Cc1cccc(C(c2ccccc2)C2CN(C(C)C)C(=O)c3c(O)c(=O)cnn32)c1` (stereo not drawn) [Compound 50], in assay [1], the EC50 is < 20 µM. In assay [2], the half-maximal inhibitory concentration (IC50) was < 0.25 µM.
For the compound `CN1C[C@H](C2c3cc(Cl)ccc3CCc3ccc(Cl)cc32)n2ncc(=O)c(O)c2C1=O` [Compound 52-B], in assay [1], the EC50 was < 20 µM. Moreover, the IC50 in assay [2] was < 0.25 µM.
Turning to `CN1CC(C2c3ccc(Cl)cc3CCc3cc(Cl)ccc32)n2ncc(=O)c(O)c2C1=O` (stereo not drawn) [Compound 31], in assay [1], the EC50 was < 20 µM. For the same compound, in assay [2], the IC50 was < 0.25 µM.
Turning to `CC(C)N1CC(C(c2ccccc2)c2cccc(Cl)c2)n2ncc(=O)c(O)c2C1=O` (stereo not drawn) [Compound 20], the EC50 in assay [1] is < 20 µM. In assay [2], the IC50 is < 0.25 µM.
On to `CCN1CC(C(c2ccccc2)c2cccc(C)c2)n2ncc(=O)c(O)c2C1=O` (stereo not drawn) [Compound 49], for which the EC50 in assay [1] was < 20 µM. Besides, the IC50 in assay [2] is < 0.25 µM.
The like results for `CN1CC(C(c2ccccc2)c2cccc(F)c2)n2ncc(=O)c(O)c2C1=O` (stereo not drawn) [Compound 23] were, in that order, < 20 µM and < 0.25 µM.
For `CN1CC(C(c2ccccc2)c2cccc(Cl)c2)n2ncc(=O)c(O)c2C1=O` (stereo not drawn) [Compound 9], the EC50 in assay [1] was < 20 µM. Further, the IC50 in assay [2] was < 0.25 µM.
On to `CC(C)N1CC(C(c2cccc(F)c2)c2cccc(F)c2)n2ncc(=O)c(O)c2C1=O` (stereo not drawn) [Compound 41], for which, in assay [1], the EC50 is < 20 µM. For the same compound, the 50% inhibitory concentration (IC50) in assay [2] is < 0.25 µM.
Taken in the same sequence, the figures for `CC(C)N1C[C@H]([C@@H](c2ccccc2)n2ccc(C#N)n2)n2ncc(=O)c(O)c2C1=O` [Compound 127-B] were < 20 µM and < 0.25 µM.
As to `CC(C)N1CC(C(c2ccccc2)c2cccc(-c3ccccc3)c2)n2ncc(=O)c(O)c2C1=O` (stereo not drawn) [Compound 78], the concentration for a half-maximal effect (EC50) in assay [1] was < 20 µM. The IC50 in assay [2] is < 0.25 µM.
The like results for `CC#Cc1ccn(C(c2ccccc2)C2CN(C)C(=O)c3c(O)c(=O)cnn32)n1` (stereo not drawn) [Compound 115] were, in that order, < 20 µM and < 0.25 µM.
Turning to `O=C1NCC(C2c3ccccc3CSc3cc(Cl)ccc32)n2ncc(=O)c(O)c21` (stereo not drawn) [Compound 16], the 50% effective concentration (EC50) in assay [1] was < 20 µM. In assay [2], the IC50 fell in the range of 0.25 to 1 µM.
`C[C@@H](N1C[C@@H](C2c3ccccc3CCc3ccccc32)n2ncc(=O)c(O)c2C1=O)C(F)(F)F` [Compound 33-B]: the EC50 in assay [1] is < 20 µM. Moreover, the IC50 in assay [2] is < 0.25 µM.
On to `CCN1C[C@H](C(c2cccc(F)c2)c2cccc(F)c2)n2ncc(=O)c(OCOC(=O)NCCN3CCOCC3)c2C1=O` [Compound 91-A], for which, in assay [1], the EC50 lay in the range of 20 to 100 µM. The IC50 in assay [2] was ≥ 1 µM.
Take `CN1C[C@@H](C2c3cccc(F)c3CCc3c(F)cccc32)n2ncc(=O)c(O)c2C1=O` [Compound 83-B]: the EC50 in assay [1] lay within 20 to 100 µM. In assay [2], the IC50 lay in the range of 0.25 to 1 µM.
For `CC(N1CC(C(c2ccccc2)c2ccccc2)n2ncc(=O)c(O)c2C1=O)C(F)(F)F` (stereo not drawn) [Compound 18], the EC50 in assay [1] was < 20 µM. In addition, the IC50 in assay [2] was < 0.25 µM.
As for `C[C@@H](N1C[C@@H](C(c2ccccc2)c2ccccc2)n2ncc(=O)c(O)c2C1=O)C(F)(F)F` [Compound 18-B], the EC50 in assay [1] is < 20 µM. The IC50 in assay [2] is < 0.25 µM.
Taken in the same sequence, the figures for `CN1CC(C2c3cc(F)ccc3CCc3ccc(F)cc32)n2ncc(=O)c(O)c2C1=O` (stereo not drawn) [Compound 45] were < 20 µM and < 0.25 µM.
Turning to `CN1C[C@@H](C2c3ccc(Cl)cc3CCc3cc(Cl)ccc32)n2ncc(=O)c(O)c2C1=O` [Compound 46-B], the EC50 in assay [1] fell in the range of 20 to 100 µM. The IC50 in assay [2] was < 0.25 µM.
As to `CN1C[C@H]([C@@H](c2ccccc2)c2cccc(Cl)c2)n2ncc(=O)c(O)c2C1=O` [Compound 9-A], the concentration giving a half-maximal response (EC50) in assay [1] was < 20 µM. Moreover, the IC50 in assay [2] is < 0.25 µM.
Turning to `COCCN1C[C@H](C(c2ccccc2)c2ccccc2)n2ncc(=O)c(O)c2C1=O` [Compound 53-A], in assay [1], the EC50 is < 20 µM. In addition, in assay [2], the IC50 is < 0.25 µM.
Consider `COc1cccc(C(c2ccccc2)C2CN(C)C(=O)c3c(O)c(=O)cnn32)c1` (stereo not drawn) [Compound 26], for which, in assay [1], the EC50 was < 20 µM. Moreover, the IC50 in assay [2] is < 0.25 µM.
As to `CC(C)N1CC(C(c2ccccc2)c2ccccc2)n2ncc(=O)c(O)c2C1=O` (stereo not drawn) [Compound 6], in assay [1], the EC50 is < 20 µM. In assay [2], the IC50 was < 0.25 µM.
`O=C1c2c(O)c(=O)cnn2[C@@H](C(c2cccc(F)c2)c2cccc(F)c2)CN1CCO` [Compound 92-A]: the EC50 in assay [1] was < 20 µM. In addition, the IC50 in assay [2] is < 0.25 µM.
On to `CC(C)N1C[C@@H](C(c2ccccc2)c2cccc(Cl)c2)n2ncc(=O)c(O)c2C1=O` (single isomer, unassigned) [Compound 73-B], for which, in assay [1], the EC50 was < 20 µM. Moreover, in assay [2], the IC50 lay within 0.25 to 1 µM.
For the compound `CC(C)C(=O)Oc1c2n(ncc1=O)C(C1c3cccc(F)c3CCc3c(F)cccc31)CN(C(C)C)C2=O` (stereo not drawn) [Compound 114], the EC50 in assay [1] is < 20 µM. In assay [2], the IC50 was < 0.25 µM.
For `C#Cc1ccn(C(c2ccccc2)C2CN(C)C(=O)c3c(O)c(=O)cnn32)n1` (stereo not drawn) [Compound 109], the EC50 in assay [1] is < 20 µM. Moreover, the IC50 in assay [2] was < 0.25 µM.
For the compound `O=C1c2c(O)c(=O)cnn2[C@H](C2c3ccccc3CCc3ccccc32)CN1Cc1ccccc1` [Compound 13-B], in assay [1], the EC50 is < 20 µM. In addition, in assay [2], the half-inhibitory concentration (IC50) is 0.25 to 1 µM.
With `CCCCN1C[C@H](C(c2cccc(F)c2)c2cccc(F)c2)n2ncc(=O)c(O)c2C1=O` [Compound 87-A], the EC50 in assay [1] is < 20 µM. Moreover, the IC50 in assay [2] was < 0.25 µM.
Take `CC(C)N1C[C@H](C(c2ccccc2)c2ccccc2)n2ncc(=O)c(OC(=O)C3CCCCC3)c2C1=O` [Compound 112]: the concentration for a half-maximal effect (EC50) in assay [1] was < 20 µM. Further, the IC50 in assay [2] was in the range of 0.25 to 1 µM.
On to `CN1C[C@@H](C2c3cc(Cl)ccc3CCc3ccc(Cl)cc32)n2ncc(=O)c(O)c2C1=O` [Compound 52-A], for which the EC50 in assay [1] was < 20 µM. Moreover, in assay [2], the IC50 is < 0.25 µM.
As to `CN1CC(Cc2ccccc2-c2ccccc2)n2ncc(=O)c(O)c2C1=O` (stereo not drawn) [Compound 19], the EC50 in assay [1] is < 20 µM. Also, the IC50 in assay [2] is < 0.25 µM.
For `O=C1c2c(O)c(=O)cnn2C(C(c2ccccc2)c2ccccc2)CN1C1CCOCC1` (stereo not drawn) [Compound 63], the EC50 in assay [1] was < 20 µM. Besides, the IC50 in assay [2] is < 0.25 µM.
Taken in the same sequence, the figures for `O=C1c2c(O)c(=O)cnn2[C@@H](C(c2cccc(F)c2)c2cccc(F)c2)CN1Cc1ccccc1` [Compound 75-A] were < 20 µM and < 0.25 µM.
For the compound `CN1C[C@@H](C2c3ccc(F)cc3CCc3c(F)cccc32)n2ncc(=O)c(O)c2C1=O` (stereo partly drawn) [Compound 81-B], the EC50 in assay [1] fell in the range of 20 to 100 µM. For the same compound, in assay [2], the IC50 was < 0.25 µM.
